Laboratory results from patent US20210040074A1 (The United States of America,as represented by the …, priority 2018, published 2021).

Columns and labels:
[1] = target: T1, D5 (Homo sapiens, UniProt P21918); experiment: D5R β-arrestin recruitment assay (DiscoverX PathHunter, CHO cells); assay type: cell-based; parameters: host or cells: CHO-K1; settings: for D5 Beta-Arrestin: DA + 50 μM PAM, Fold Change EC50: fold change of dopamine EC50, 50 μM compound; for Dopamine D5-β-arrestin Assay: DA + 50 μM PAM, Fold Change EC50: Table 6, 50 μM compound
T1 sequence (P21918 whole entry): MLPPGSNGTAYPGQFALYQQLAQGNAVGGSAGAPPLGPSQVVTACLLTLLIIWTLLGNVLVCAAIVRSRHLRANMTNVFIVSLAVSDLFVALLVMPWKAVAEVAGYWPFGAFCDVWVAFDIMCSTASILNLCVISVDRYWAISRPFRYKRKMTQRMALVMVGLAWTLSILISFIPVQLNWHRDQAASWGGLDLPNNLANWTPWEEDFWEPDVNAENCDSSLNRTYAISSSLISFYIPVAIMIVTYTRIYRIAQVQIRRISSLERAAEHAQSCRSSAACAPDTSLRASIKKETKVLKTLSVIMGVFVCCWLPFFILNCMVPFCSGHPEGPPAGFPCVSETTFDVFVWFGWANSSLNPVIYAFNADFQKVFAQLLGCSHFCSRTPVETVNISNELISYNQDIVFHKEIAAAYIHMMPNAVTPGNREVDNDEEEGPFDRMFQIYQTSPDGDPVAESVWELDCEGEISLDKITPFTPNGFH
Method: (§1) β-arrestin Recruitment Assay. […] Following 18-24 h of incubation, the cells were treated with the indicated concentrations of compound in PBS buffer containing 0.2 mM sodium metabisulfite, and incubated at 37° C. for 90 min. DiscoverX reagent was added to cells according to the manufacturer's protocol, followed by a 60 min incubation in the dark at room temperature. Luminescence was measured on a Hamamatsu FDSS μ-Cell reader (Hamamatsu, Bridgewater, N.J.) and data were collected using the FDSS software.
Each PAM was also examined in the absence of DA as an agonist, as indicated.

[2] = target: T2, D4R (Homo sapiens, UniProt P21917); experiment: D4 β-arrestin recruitment assay (DiscoverX PathHunter, CHO-K1 cells); assay type: cell-based; parameters: inferred from the same PathHunter system described for D1R and D5R; host or cells: CHO-K1; settings: for D4 Beta-Arrestin: DA + 50 μM PAM, Fold Change EC50: fold change of dopamine EC50, 50 μM compound; for Dopamine D4-β-arrestin Assay: DA + 50 μM PAM, Fold Change EC50: Table 7, 50 μM compound; for DA + 50 μM PAM, Fold Change EC50: fold change of DA EC50 with 50 μM PAM, Dopamine D4-β-arrestin Assay
T2 sequence (P21917 1-419): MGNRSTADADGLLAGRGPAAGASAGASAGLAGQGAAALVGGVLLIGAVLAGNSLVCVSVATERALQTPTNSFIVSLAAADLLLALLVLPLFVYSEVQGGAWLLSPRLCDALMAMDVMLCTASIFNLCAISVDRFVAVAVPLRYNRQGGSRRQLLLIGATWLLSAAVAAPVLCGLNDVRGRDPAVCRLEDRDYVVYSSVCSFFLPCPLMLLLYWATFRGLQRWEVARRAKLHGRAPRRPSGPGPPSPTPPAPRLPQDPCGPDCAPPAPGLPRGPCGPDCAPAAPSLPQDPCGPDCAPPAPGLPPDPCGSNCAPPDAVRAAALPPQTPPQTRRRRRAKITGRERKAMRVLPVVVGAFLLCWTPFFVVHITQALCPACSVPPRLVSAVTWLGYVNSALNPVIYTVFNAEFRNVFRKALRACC
Method: as §1, with “Assay. Agonist-mediated recruitment of β-arrestin-2 to all five DARs was determined using the DiscoveRx PathHunter complementation assay (DiscoverX Inc, Fremont, Calif.), as previously described (Free, et. al., 2014; Conroy, et. al., 2015).” for “Assay.”

[3] = target: human D1R (Homo sapiens, UniProt P21728); experiment: D1R β-arrestin recruitment assay (DiscoverX PathHunter, CHO-K1 cells); settings: for Dopamine D1-β-arrestin Assay: DA + 50 μM PAM, Fold Change EC50: Table 5, 50 μM compound
human D1R, sequence (P21728 whole entry): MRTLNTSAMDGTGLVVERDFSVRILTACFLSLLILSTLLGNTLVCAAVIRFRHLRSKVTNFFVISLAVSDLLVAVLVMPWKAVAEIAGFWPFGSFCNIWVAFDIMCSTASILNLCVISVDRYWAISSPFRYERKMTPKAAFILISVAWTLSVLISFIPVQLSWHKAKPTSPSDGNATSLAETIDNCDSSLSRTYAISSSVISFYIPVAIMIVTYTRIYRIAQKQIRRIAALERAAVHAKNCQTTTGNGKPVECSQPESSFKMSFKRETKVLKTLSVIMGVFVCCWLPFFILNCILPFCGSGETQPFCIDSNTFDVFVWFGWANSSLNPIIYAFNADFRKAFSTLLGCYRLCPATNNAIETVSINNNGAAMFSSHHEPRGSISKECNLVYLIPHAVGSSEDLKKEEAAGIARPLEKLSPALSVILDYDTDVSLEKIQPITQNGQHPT
Source text: The DiscoverX PathHunter β-Arrestin Assay was used to measure β-arrestin reuitment to the D1R following the manufacturer's instructions.

[4] = target: T1, D5; experiment: D5 cAMP assay; settings: fold change of dopamine EC50, 50 μM compound
Method: cAMP Accumulation Assay. Assays were performed on D1R-HEK293 (Codex Biosolutions, Gaithersburg, Md.) cells stably expressing the human D1R. HEK293 cell lines were maintained in Dulbecco's modified Eagles medium, supplemented with 10% fetal bovine serum, 100 U/ml penicillin, 100 μg/ml streptomycin, 1 mM sodium pyruvate, and 250 μg/ml G418 and incubated at 37° C., 5% CO2, and 90% humidity. […] After 18-24 h incubation at 37° C., 5% CO2, and 90% humidity, the media was removed and replaced with 5 μL/well PBS. […] Briefly, antibody and working solution was added to each well according to the manufacturer's protocol, and incubated in the dark at room temperature for 60 min. Following incubation, enzyme acceptor reagent was added to the plates and luminescence (RLU) was measured (FDSS μCell, Hamamatsu Photonics K. K., Bridgewater, N.J.) following a 3 h incubation in the dark at room temperature.

SMILES | D5 Beta-Arrestin: DA + 50 μM PAM, Fold Change EC50 [1] | D4 Beta-Arrestin: DA + 50 μM PAM, Fold Change EC50 [2] | further results
Oc1cc2c(cc1O)[C@H]1c3ccccc3CN[C@@H]1CC2 (racemic) [dihydrexidine, reference compound] |  |  | Emax ([3]; CHO-K1, read-out: dihydrexidine Emax): 70.5%
COc1ccc(-n2c(CC(C)C)nc3c(c(=O)c4ccccc4n3C)c2=O)cc1Cl [Compound 8] | 1.53 | 1.20 | 
CC(C)Cn1c(-c2ccco2)nc2c(c(=O)c3ccccc3n2C)c1=O [R1=i-Bu, R2=2-furyl, R3=H, X=NMe] |  |  | Dopamine D5-β-arrestin Assay: DA + 50 μM PAM, Fold Change EC50 [1]: 17.2; Dopamine D1-β-arrestin Assay: DA + 50 μM PAM, Fold Change EC50 [3]: 2.06; Dopamine D4-β-arrestin Assay: DA + 50 μM PAM, Fold Change EC50 [2]: 1.7
Cc1ccccc1NC(=O)c1c(NC(=O)c2ccncc2)sc2c1CCC(C)C2 (stereo not drawn) [R4=NH-2-MePH; R5=NHCO-4-pyridyl; R6=Me] |  |  | DA + 50 μM PAM, Fold Change EC50 [2]: 1.09
Cn1c2ccccc2c(=O)c2c(=O)n(C3CCCCCC3)c(C3CCCCC3)nc21 |  |  | Dopamine D5-β-arrestin Assay: DA + 50 μM PAM, Fold Change EC50 [1]: 1.71; Dopamine D1-β-arrestin Assay: DA + 50 μM PAM, Fold Change EC50 [3]: 3.85; Dopamine D4-β-arrestin Assay: DA + 50 μM PAM, Fold Change EC50 [2]: 0.95
Cn1c2ccccc2c(=O)c2c(=O)n(-c3ccccc3)c(CC3CCCCC3)nc21 [Compound 20] | 2.38 | 2.14 | D5 cAMP: DA + 50 μM PAM, Fold Change EC50 [4]: 1.30
Cn1c2ccccc2c(=O)c2c(=O)n(-c3ccc(Cl)cc3)c(CC3CCCCC3)nc21 [Compound 17] | 1.09 | 1.38 | D5 cAMP: DA + 50 μM PAM, Fold Change EC50 [4]: 1.43
Cn1c2ccccc2c(=O)c2c(=O)[nH]c(C3CCCC3)nc21 [Compound 12] | 0.66 | 0.71 | 
COc1ccc(-n2c(CC(C)C)nc3c(c(=O)c4ccccc4n3C)c2=O)cc1 [Compound 9] | 2.93 | 1.58 | 
CC(C)(C)C1CCc2c(sc(NC(=O)c3ccco3)c2C(N)=O)C1 (stereo not drawn) [R4=NH2; R5=NHCO-2-furanyl; R6=t-Bu] |  |  | DA + 50 μM PAM, Fold Change EC50 ([1]; fold change of DA EC50 with 50 μM PAM, Dopamine D5-β-arrestin Assay): 1.14; DA + 50 μM PAM, Fold Change EC50 ([3]; fold change of DA EC50 with 50 μM PAM, Dopamine D1-β-arrestin Assay): 2.19; DA + 50 μM PAM, Fold Change EC50 [2]: 1.17
COc1ccc(-n2c(CC3CCCCC3)nc3c(c(=O)c4ccccc4n3C)c2=O)cc1Cl [Compound 19] | 1.29 | 1.78 | D5 cAMP: DA + 50 μM PAM, Fold Change EC50 [4]: 1.04

More lines, main results first:

D5 Beta-Arrestin: DA + 50 μM PAM, Fold Change EC50 [1] | D4 Beta-Arrestin: DA + 50 μM PAM, Fold Change EC50 [2] | SMILES | further results
4.10 | 1.46 | COc1ccc(-n2c(C3CCCC3)nc3c(c(=O)c4ccccc4n3C)c2=O)cc1 [Compound 11] | 
1.35 | 1.57 | Cn1c2ccccc2c(=O)c2c(=O)n(-c3cccc(Cl)c3)c(CC3CCCCC3)nc21 [Compound 18] | D5 cAMP: DA + 50 μM PAM, Fold Change EC50 [4]: 0.34
2.64 | 0.64 | Cc1ccc(-n2c(C3CCCCC3)nc3c(c(=O)c4ccccc4n3C)c2=O)cc1 [Compound 2] | 
3.35 | 1.19 | COc1ccc(-n2c(C3CCCCC3)nc3c(c(=O)c4ccccc4n3C)c2=O)cc1 [Compound 27] | 
1.15 | 1.40 | Cc1ccc(-n2c(CC3CCCCC3)nc3c(c(=O)c4ccccc4n3C)c2=O)cc1 [Compound 26] | 
3.11 | 1.33 | Cc1ccc(-n2c(C3CCCC3)nc3c(c(=O)c4ccccc4n3C)c2=O)cc1 [Compound 10] | 
